Test results reported in ChEMBL document CHEMBL6096641, “Discovery of the synergy between sulindac and NO expands the application of NSAIDs in cardiac complications” (Bioorg Med Chem, 2024).
Calls of active or inactive are those of the source. The rule behind the calls is not given here.

What was measured:
H9c2 [1] = test: Induction of NO release ratio in rat H9c2 cells under hypoxia condition by Griess reagent based microplate reader analysis relative to control; format: functional; parameters: concentration or dose not given beside the values
[2] = target: T1, Prostaglandin G/H synthase 2 (Homo sapiens, UniProt P35354); test: Inhibition of COX-2 (unknown origin)
T1 sequence (P35354 whole entry): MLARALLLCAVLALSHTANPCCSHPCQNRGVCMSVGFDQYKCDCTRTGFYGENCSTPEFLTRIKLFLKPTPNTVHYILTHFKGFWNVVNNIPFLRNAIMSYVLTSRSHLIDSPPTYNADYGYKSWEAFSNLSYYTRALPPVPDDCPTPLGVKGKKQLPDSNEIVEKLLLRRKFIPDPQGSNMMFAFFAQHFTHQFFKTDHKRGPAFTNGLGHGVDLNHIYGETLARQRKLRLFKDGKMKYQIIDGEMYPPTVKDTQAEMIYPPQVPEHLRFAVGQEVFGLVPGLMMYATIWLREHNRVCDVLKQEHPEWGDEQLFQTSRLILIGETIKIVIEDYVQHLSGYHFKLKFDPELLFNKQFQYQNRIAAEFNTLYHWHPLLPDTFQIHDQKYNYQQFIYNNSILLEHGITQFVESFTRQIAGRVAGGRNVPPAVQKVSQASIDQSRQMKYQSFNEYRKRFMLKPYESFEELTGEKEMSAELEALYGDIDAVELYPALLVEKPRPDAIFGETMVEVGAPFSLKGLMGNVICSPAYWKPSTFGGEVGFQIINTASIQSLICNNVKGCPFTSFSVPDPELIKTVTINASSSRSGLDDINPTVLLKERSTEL

H9c2 [3] = test: Upregulation of HO-1 expression in rat H9c2 cells at 1 uM under hypoxia by Western blotting analysis; format: functional, cell-based
[4] = Toxicity in male Wistar rat assessed as growth curve at 10 mg/kg administered once a day for 3 days and measured after 6 days; format: organism-based; settings: in vivo, 72 h, time 3 day
Rattus norvegicus [5] = test: Cardioprotective activity against LPS and talc powder induced pericarditis male Wistar rat assessed as improvement in cardiac swelling at 10 mg/kg administered for 3 days; format: functional, organism-based; settings: time 3.0 day
[6] = Induction of H2S release by absorbance based analysis; format: functional
H9c2 [7] = test: Downregulation of ACE protein expression in rat H9c2 cells at 1 uM under hypoxia by Western blotting analysis; format: functional, cell-based
Rattus norvegicus [8] = test: Cardioprotective activity against LPS and talc powder induced pericarditis male Wistar rat assessed as improvement in pericardium thickening at 10 mg/kg administered for 3 days; format: functional, organism-based; settings: time 3.0 day
H9c2 [9] = test: Upregulation of VEFG protein expression level in rat H9c2 cells at 1 uM under hypoxia by Western blotting analysis; format: functional, cell-based
H9c2 [10] = test: Induction of NO release in rat H9c2 cells under hypoxia condition at 1 to 50 uM incubated for 4 hrs by Griess reagent based microplate reader analysis; format: functional, cell-based; settings: dose 1-50 µM

With `COc1ccc2c(c1)c(CC(=O)Oc1ccc(N(C)N=O)cc1)c(C)n2C(=O)c1ccc(Cl)cc1` the Activity (H9c2 [1]) was 32.85%.

In the case of `CC(C)Cc1ccc(C(C)C(=O)Oc2ccc(N(C)N=O)cc2)cc1` (configuration not stated), the IC50 [2] is reported as 451 µM and the Activity (H9c2 [1]) is reported as 12.11%.

With `CC(C(=O)Oc1ccc(N(C)N=O)cc1)c1cccc(Oc2ccccc2)c1` (configuration not stated) the Activity (H9c2 [1]) was 1.12%.

In the case of `CC(C(=O)Oc1ccc(N(C)N=O)cc1)c1cccc(C(=O)c2ccccc2)c1` (configuration not stated), the Activity (H9c2 [1]) is reported as 2.23%.

`Cc1cccc(Nc2ccccc2C(=O)Oc2ccc(N(C)N=O)cc2)c1C` showed an Activity (H9c2 [1]) of 34.55%.

For `CCc1cccc2c3c([nH]c12)C(CC)(CC(=O)Oc1ccc(N(C)N=O)cc1)OCC3` (configuration not stated), the Activity (H9c2 [1]) was 1.01%.

For `CC1=C(CC(=O)Oc2ccc(N(C)N=O)cc2)c2cc(F)ccc2/C1=C\c1ccc([S+](C)[O-])cc1` (configuration not stated), the Activity (H9c2 [1]) was 32.56%.

Work on `COc1ccc2cc(C(C)C(=O)Oc3ccc(N(C)N=O)cc3)ccc2c1` (single isomer, unassigned) yielded an Activity (H9c2 [1]) of 44.95%.

In the case of `CC1=C(CC(=O)O)c2cc(F)ccc2/C1=C\c1ccc([S+](C)[O-])cc1` (configuration not stated) [SULINDAC], the Activity (H9c2 [3]) is reported as “Active”, the Activity [4] is reported as “Non-toxic” and the Activity (Rattus norvegicus [5]) is reported as “Active”. For the same compound, the Activity [6] was 29.5 µg/L, the Activity (H9c2 [7]) was “Active” and the Activity (Rattus norvegicus [8]) was “Active”. For the same compound, the Activity (H9c2 [9]) was “inactive” and the Activity (H9c2 [10]) was “inactive”.
